Like-named read-outs stand apart in the source and are kept apart here.
What was measured:
[1] = system: Snu-16 gastric cancer cells (FGFR2 gene amplification); assay: Cell proliferation assay (Cell Titer Glo), Snu-16; format: cell-based; settings: Snu-16 cells, 3 days, CTG, read-out: Cellular IC50 (nM) Sun16
Method: (§1) II. Cell Proliferation Assay (Cell Titer Glo(CTG) Assay)
(§2) The FGFR signal pathway dependent inhibitory effect of the compound in the present invention on cell proliferation was assessed by survival test using CTG reagent (Promega, 4G7573). Cell lines representative of a variety of tumor types, including H1581 lung cancer cells (FGFR1 gene amplification), Snu-16 gastric cancer cells (FGFR2 gene amplification), and RT112 bladder carcinoma cells (FGFR3-TACC3 fusion) from Nanjing Cobioer Biosciences, were selected for the assay. The specific experimental procedure was as follows: • 1. 90 μL of cells were seeded into a 96-well plate processed with TCM (Costar 43904), and incubated overnight at 37° C. in a 5% CO2 incubator; afterwards, 10 μL of the culture medium containing the compound at 10 fold of its final concentration was added; • 2. The dose-dependent effect was evaluated by a serial dilution of the test compound, starting from 10 μM or a lower concentration. • 3. The cells were incubated at 37° C. under 5% C02 for 3 days, then added 50 μL CTG, and read the data with Envision (Pelkin Elmer) to quantify the ATP level in the cells. The ATP levels in cells with treatment of inhibitor at a variety of concentrations were compared with those in cells of the control group (in which DMSO was added into the medium) to evaluate the compound percent inhibition of cell proliferation/survival. • 4. The compound half growth inhibitory concentration (IC50) was determined in Graphpad Prism by 4-parameter curve fitting.

[2] = system: H1581 lung cancer cells (FGFR1 gene amplification); assay: Cell proliferation assay (Cell Titer Glo), H1581; format: cell-based; settings: 3 days, CTG, read-out: Cellular IC50 (nM) H1581
Method: as §1, §2

[3] = system: RT112 bladder carcinoma cells (FGFR3-TACC3 fusion); assay: Cell proliferation assay (Cell Titer Glo), RT112; format: cell-based; settings: Homo sapiens, RT-112, 72 h, 3 days, CTG, read-out: Cellular IC50 (nM) RT112
Method: as §1, §2

FGFR2 = FGFR2 (Homo sapiens (Human), UniProt P21802); assay: In vitro biochemical kinase assay (Caliper Assay), FGFR2; settings: enzyme 2.5 nM, ATP 1 μM, 40 minutes; read-out: Enzymatic activity IC50(nM) FGFR2
Method: (§3) I. In Vitro Biochemical Kinase Assay of FGFR 1˜3
(§4) Caliper Assay was used in the present invention to determine the inhibitory activities of the compounds against FGFR1, FGFR2, and FGFR3. The specific experimental procedure was as follows: • 1. The kinase reaction in the present invention was carried out in 384-well plates, the kinase(Carna) at a certain concentration and ATP at a certain concentration and 1 μM of peptide FAM-P22 (GL Biochem, Cat. No. 112393)) was incubated to react for a certain time at 28° C. in a reaction system consisting of 50 mM HEPES, […], 0.0015% Brij-35 and basic kinase buffer; for FGFR1, the enzyme concentration was 0.25 nM and ATP concentration was 382 μM and the reaction time was 20 minutes; for FGFR2, the enzyme concentration was 2.5 nM, ATP concentration was 1 μM, and the reaction time was 40 minutes; for FGFR3, the enzyme concentration was 8 nM, ATP concentration was 4.7 μM, and the reaction time was 30 minutes: • 2. The reaction was terminated with a stop solution (100 mM HEPES, pH 7.5, 0.2% Caliper coating, reagent, 50 mM EDTA and 0.015% Brij35); • 3. The plate with the terminated kinase reaction was transferred to the Caliper workstation to read the data; • 4. the phosphorylated and unphosphorylated peptides were separated by the Caliper microfluid migration shift technique, and the analyte was transferred by a constant buffer flow through the chip, the migration of the substrate peptide was monitored by the labeled fluorescent signal, and the kinase activity was calculated by the amount of the phosphate-based peptide formed. • 5. IC50 was determined by non-linear regression analysis of percent inhibition at different concentration level of the compound.

FGFR1 = FGFR1 (Homo sapiens (Human), UniProt P11362); assay: In vitro biochemical kinase assay (Caliper Assay), FGFR1; settings: enzyme 0.25 nM, ATP 382 μM, 20 minutes; read-out: Enzymatic activity IC50(nM) FGFR1
Method: as §3, §4

Sequence of FGFR1 (P11362 22-822): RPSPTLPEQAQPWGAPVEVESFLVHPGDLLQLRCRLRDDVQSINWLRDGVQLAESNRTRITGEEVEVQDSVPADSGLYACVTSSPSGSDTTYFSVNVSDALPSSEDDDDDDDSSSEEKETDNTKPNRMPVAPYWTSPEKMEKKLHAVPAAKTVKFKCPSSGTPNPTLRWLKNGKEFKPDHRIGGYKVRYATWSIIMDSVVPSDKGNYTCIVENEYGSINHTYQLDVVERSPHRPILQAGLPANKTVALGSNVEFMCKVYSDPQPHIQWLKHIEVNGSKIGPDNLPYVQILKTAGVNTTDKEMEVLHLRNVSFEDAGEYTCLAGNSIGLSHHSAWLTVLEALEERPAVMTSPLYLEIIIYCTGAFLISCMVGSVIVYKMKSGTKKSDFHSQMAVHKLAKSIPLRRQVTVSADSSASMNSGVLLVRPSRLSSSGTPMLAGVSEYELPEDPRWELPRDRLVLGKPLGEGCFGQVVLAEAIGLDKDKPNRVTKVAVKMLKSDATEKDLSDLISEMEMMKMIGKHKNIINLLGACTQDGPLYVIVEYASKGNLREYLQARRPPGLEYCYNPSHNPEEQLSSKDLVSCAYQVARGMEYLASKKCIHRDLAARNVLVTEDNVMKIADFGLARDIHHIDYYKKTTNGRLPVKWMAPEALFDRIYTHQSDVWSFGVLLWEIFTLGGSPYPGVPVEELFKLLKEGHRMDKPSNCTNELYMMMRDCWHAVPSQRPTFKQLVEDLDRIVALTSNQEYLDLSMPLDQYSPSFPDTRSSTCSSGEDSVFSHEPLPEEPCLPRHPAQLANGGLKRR
Sequence of FGFR2 (P21802 22-821): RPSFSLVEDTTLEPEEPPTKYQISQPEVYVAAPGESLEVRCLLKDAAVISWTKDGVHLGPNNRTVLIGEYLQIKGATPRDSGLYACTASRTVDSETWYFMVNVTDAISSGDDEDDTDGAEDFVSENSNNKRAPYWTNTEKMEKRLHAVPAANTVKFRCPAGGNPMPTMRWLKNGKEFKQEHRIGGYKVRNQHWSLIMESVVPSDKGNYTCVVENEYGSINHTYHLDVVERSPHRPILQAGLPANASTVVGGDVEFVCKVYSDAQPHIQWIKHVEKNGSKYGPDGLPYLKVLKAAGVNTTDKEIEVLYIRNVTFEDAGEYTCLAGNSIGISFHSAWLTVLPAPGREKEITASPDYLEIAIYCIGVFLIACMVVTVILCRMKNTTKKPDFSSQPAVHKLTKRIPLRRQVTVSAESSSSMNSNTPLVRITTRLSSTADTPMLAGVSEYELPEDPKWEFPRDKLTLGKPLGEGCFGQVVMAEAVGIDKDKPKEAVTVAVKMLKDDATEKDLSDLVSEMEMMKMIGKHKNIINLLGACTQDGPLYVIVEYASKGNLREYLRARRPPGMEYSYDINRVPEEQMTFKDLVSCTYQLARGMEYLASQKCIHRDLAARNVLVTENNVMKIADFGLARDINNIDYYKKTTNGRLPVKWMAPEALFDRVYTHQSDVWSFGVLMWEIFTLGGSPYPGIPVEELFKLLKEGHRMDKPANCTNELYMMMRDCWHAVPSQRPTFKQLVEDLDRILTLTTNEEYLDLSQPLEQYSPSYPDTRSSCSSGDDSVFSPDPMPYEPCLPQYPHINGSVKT

Row | IC50 ([1]; Homo sapiens, SNU-16, 72 h, numeric values) [nM] | IC50 ([2]; Homo sapiens, NCI-H1581, 72 h) [nM] | IC50 ([3]; numeric values) [nM] | IC50 ([1]; Homo sapiens, SNU-16, 72 h) [nM] | IC50 (FGFR2) [nM] | IC50 (FGFR1) [nM] | IC50 [3] [nM] | IC50 [1] [nM] | IC50 [2] [nM] | SMILES
1 | 6 | 50 to 500 | 4.1 |  |  |  |  |  |  | COc1cc(OC)c(Cl)c(-c2cc3cnc(-c4cnn(CCN5CCOCC5)c4)cc3n(C3CCOC3)c2=O)c1Cl (stereo not drawn) [Example 18, 3-(2,6-dichloro-3,5-dimethoxyphenyl)-7-(1-(2-morpholinoethyl)-1H-pyrazol-4-yl)-1-(tetrahydrofuran-3-yl)-1,6-naphthyridin-2(1H)-one]
2 |  | 50 to 500 |  | 50 to 500 | ≤ 5 | ≤ 5 |  |  |  | CCn1c(=O)c(-c2c(F)c(OC)cc(OC)c2F)cc2cnc(-c3cnn(C)c3)cc21 [Example 25, 3-(2,6-difluoro-3,5-dimethoxyphenyl)-1-ethyl-7-(1-methyl-1H-pyrazol-4-yl)-1,6-naphthyridin-2(1H)-one]
3 |  | 10 to 50 |  | 5 to 10 | ≤ 5 | ≤ 5 |  |  |  | COc1cc(OC)c(Cl)c(-c2cc3cnc(-c4cnn(C)c4)cc3n(C3CCOC3)c2=O)c1Cl (stereo not drawn) [Example 7, 3-(2,6-dichloro-3,5-dimethoxyphenyl)-7-(1-methyl-1H-pyrazol-4-yl)-1-(tetrahydrofuran-3-yl)-1,6-naphthyridin-2(1H)-one]
4 |  | 50 to 500 |  | 10 to 50 | ≤ 5 | 10 to 50 |  |  |  | CCn1c(=O)c(-c2c(Cl)c(OC)cc(OC)c2Cl)cc2cnc(-c3cn(C4CCN(C)C4)nc3C)cc21 (stereo not drawn) [Example 46, 3-(2,6-dichloro-3,5-dimethoxyphenyl)-1-ethyl-7-(3-methyl-1-(1-methylpyrrolidin-3-yl)-1H-pyrazol-4-yl)-1,6-naphthyridin-2(1H)-one]
5 |  | 50 to 500 |  | 10 to 50 | 10 to 50 | 50 to 500 | 50 to 500 |  |  | COc1cc(OC)c(Cl)c(-c2cc3cnc(-c4ccc(C5(C#N)CCC5)nc4)cc3n(C3CCOC3)c2=O)c1Cl (stereo not drawn) [Example 16, 1-(5-(3-(2,6-dichloro-3,5-dimethoxyphenyl)-2-oxo-1-(tetrahydrofuran-3-yl)-1,2-dihydro-1,6-naphthyridin-7-yl)pyridin-2-yl)cyclobutane-1-carbonitrile]
6 |  | 10 to 50 |  | ≤ 5 | ≤ 5 | ≤ 5 | ≤ 5 |  |  | COc1cc(OC)c(F)c(-c2cc3cnc(-c4cnn(C)c4)cc3n(C3CCOC3)c2=O)c1F (stereo not drawn) [Example 28, 3-(2,6-difluoro-3,5-dimethoxyphenyl)-7-(1-methyl-1H-pyrazol-4-yl)-1-(tetrahydrofuran-3-yl)-1,6-naphthyridin-2(1H)-one]
7 |  | 10 to 50 |  | ≤ 5 |  |  | ≤ 5 |  |  | COc1cc(OC)c(F)c(-c2cc3cnc(-c4cnn(CCN5CCOCC5)c4)cc3n(C3CCCC3)c2=O)c1F [Example 34, 1-cyclopentyl-3-(2,6-difluoro-3,5-dimethoxyphenyl)-7-(1-(2-morpholinoethyl)-1H-pyrazol-4-yl)-1,6-naphthyridin-2(1H)-one]
8 |  |  |  |  | ≤ 5 | ≤ 5 |  | ≤ 5 | 10 to 50 | COc1cc(OC)c(Cl)c(-c2cc3cnc(-c4cnn(C)c4)cc3n([C@H]3CCOC3)c2=O)c1Cl [Example 22, (S)-3-(2,6-dichloro-3,5-dimethoxyphenyl)-7-(1-methyl-1H-pyrazol-4-yl)-1-(tetrahydrofuran-3-yl)-1,6-naphthyridin-2(1H)-one]
9 |  | 50 to 500 |  | 10 to 50 | ≤ 5 | 10 to 50 |  |  |  | CCn1c(=O)c(-c2c(Cl)c(OC)cc(OC)c2Cl)cc2cnc(-c3cnn(C4CN(S(C)(=O)=O)C4)c3)cc21 [Example 11, 3-(2,6-dichloro-3,5-dimethoxyphenyl)-1-ethyl-7-(1-(1-(methylsulfonyl)azetidin-3-yl)-1H-pyrazol-4-yl)-1,6-naphthyridin-2(1H)-one]
10 |  | 50 to 500 |  | 5 to 10 | ≤ 5 | 10 to 50 |  |  |  | COc1cc(OC)c(Cl)c(-c2cc3cnc(-c4cnn(CCN(C)C)c4)cc3n(C3CCOC3)c2=O)c1Cl (stereo not drawn) [Example 48, 3-(2,6-dichloro-3,5-dimethoxyphenyl)-7-(1-(2-(dimethylamino)ethyl)-1H-pyrazol-4-yl)-1-(tetrahydrofuran-3-yl)-1,6-naphthyridin-2(1H)-one]
11 |  | 50 to 500 |  | 5 to 10 |  |  | ≤ 5 |  |  | COc1cc(OC)c(F)c(-c2cc3cnc(-c4cnn(CCN5CCOCC5)c4)cc3n(C3CCOC3)c2=O)c1F (stereo not drawn) [Example 35, 3-(2,6-difluoro-3,5-dimethoxyphenyl)-7-(1-(2-morpholinoethyl)-1H-pyrazol-4-yl)-1-(tetrahydrofuran-3-yl)-1,6-naphthyridin-2(1H)-one]
12 |  | 50 to 500 |  | 50 to 500 | ≤ 5 | 10 to 50 |  |  |  | COc1cc(OC)c(Cl)c(-c2cc3cnc(-c4cnn(C)c4)cc3n(CC3CC3)c2=O)c1Cl [Example 4, 1-(cyclopropylmethyl) 3-(2,6-dichloro-3,5-dimethoxyphenyl)-7-(1-methyl-1H-pyrazol-4-yl)-1,6-naphthyridin-2(1H)-one]
13 |  | 50 to 500 |  | 10 to 50 | 10 to 50 | 50 to 500 |  |  |  | COc1cc(OC)c(Cl)c(-c2cc3cnc(-c4cnn(C)c4)cc3n(CCN3CCOCC3)c2=O)c1Cl [Example 5, 3-(2,6-dichloro-3,5-dimethoxyphenyl)-7-(1-methyl-1H-pyrazol-4-yl)-1-(2-morpholinoethyl)-1,6-naphthyridin-2(1H)-one]
14 |  | 50 to 500 |  | 5 to 10 | ≤ 5 | 5 to 10 |  |  |  | COc1cc(OC)c(F)c(-c2cc3cnc(-c4ccc(C(C)(C)C#N)nc4)cc3n(C3CCOC3)c2=O)c1F (stereo not drawn) [Example 40, 2-(5-(3-(2,6-difluoro-3,5-dimethoxyphenyl)-2-oxo-1-(tetrahydrofuran-3-yl)-1,2-dihydro-1,6-naphthyridin-7-yl)pyridin-2-yl)-2-methylpropanenitrile]
15 |  | 10 to 50 |  | ≤ 5 | ≤ 5 | ≤ 5 |  |  |  | COc1cc(OC)c(F)c(-c2cc3cnc(-c4cnn(CCN5CCOCC5)c4)cc3n(C(C)C)c2=O)c1F [Example 30, 3-(2,6-difluoro-3,5-dimethoxyphenyl)-1-isopropyl-7-(1-(2-morpholinoethyl)-1H-pyrazol-4-yl)-1,6-naphthyridin-2(1H)-one]
16 |  | 50 to 500 |  | 10 to 50 | ≤ 5 | 5 to 10 |  |  |  | CCn1c(=O)c(-c2c(F)c(OC)cc(OC)c2F)cc2cnc(-c3cnn(CCN4CCOCC4)c3)cc21 [Example 29, 3-(2,6-difluoro-3,5-dimethoxyphenyl)-1-ethyl-7-(1-(2-morpholinoethyl)-1H-pyrazol-4-yl)-1,6-naphthyridin-2(1H)-one]
17 |  | 10 to 50 |  | ≤ 5 | ≤ 5 | ≤ 5 |  |  |  | COc1cc(OC)c(F)c(-c2cc3cnc(-c4cnn(C)c4)cc3n(C3CCCC3)c2=O)c1F [Example 33, 1-cyclopentyl-3-(2,6-difluoro-3,5-dimethoxyphenyl)-7-(1-methyl-1H-pyrazol-4-yl)-1,6-naphthyridin-2(1H)-one]
18 |  |  |  |  | ≤ 5 | 10 to 50 |  |  |  | CCn1c(=O)c(-c2c(Cl)c(OC)cc(OC)c2Cl)cc2cnc(-c3cn(C)nc3C)cc21 [Example 9, 3-(2,6-dichloro-3,5-dimethoxyphenyl)-7-(1,3-dimethyl-1H-pyrazol-4-yl)-1-ethyl-1,6-naphthyridin-2(1H)-one]

— patent US12351576B2, “FGFR inhibitor, preparation method therefor and application thereof” (Abbisko Therapeutics Co., Ltd., priority 2018, dated 2025)
